Measured values published in US9925174B2, “Administration form for the oral application of 3-[(2-{[4-(hexyloxycarbonyl-amino-imino-methyl)-phenylamino]-methyl}-1-methyl-1 H-benzimidazol acid ethyl ester and the salts thereof” (Boehringer Ingelheim International GmbH, priority 2002, dated 2018).

Assay: Solubility in water as a function of pH
Type: physicochemical

CCCCCCOC(=O)NC(=N)c1ccc(NCc2nc3cc(C(=O)N(CCC(=O)OCC)c4ccccn4)ccc3n2C)cc1 [compound of formula I, ethyl 3-[(2-{[4-(hexyloxycarbonylamino-imino-methyl)-phenylamino]-methyl}-1-methyl-1H-benzimidazole-5-carbonyl)-pyridin-2-yl-amino]-propionate]
solubility in water at low pH levels (low pH): dissolves relatively well | solubility in water at pH levels above 5 (pH above 5, definition of the European Pharmacopoeia): virtually insoluble
